Test results published in the NIST ThermoML archive (doi:10.1016/j.jct.2011.05.003).
± gives the expanded uncertainty stated by the source.

Assay: xn = mol fraction of the nth substance listed
Details: Liquid; for speed of sound: 101 kPa, Sing-around technique in a fixed-path interferometer; for mass density: 101.3 kPa, Vibrating tube method

CCCCNCCCC [dibutylamine] + CCCCCC(C)=O
Details	mass density [kg/m3]	speed of sound [m/s]
293.15 K, x2 = 0.064	762.405 ± 0.16	1261.7 ± 0.84
293.15 K, x2 = 0.1633	767.21 ± 0.16	1263 ± 0.87
293.15 K, x2 = 0.2061	769.239 ± 0.17	1263.4 ± 0.89
293.15 K, x2 = 0.2606	772.046 ± 0.17	1264.5 ± 0.91
293.15 K, x2 = 0.4493	781.952 ± 0.18	1267.8 ± 0.97
293.15 K, x2 = 0.5094	785.255 ± 0.19	1269.1 ± 1
293.15 K, x2 = 0.644	792.949 ± 0.2	1272.1 ± 1.1
293.15 K, x2 = 0.7511	799.387 ± 0.21	1274.7 ± 1.1
293.15 K, x2 = 0.9018	808.899 ± 0.23	1278.8 ± 1.1
298.15 K, x2 = 0.0624	758.343 ± 0.16	1241.7 ± 0.83
298.15 K, x2 = 0.1107	760.603 ± 0.16	1242.2 ± 0.85
298.15 K, x2 = 0.2097	765.511 ± 0.17	1243.8 ± 0.88
298.15 K, x2 = 0.3613	773.119 ± 0.18	1246.3 ± 0.94
298.15 K, x2 = 0.4049	775.426 ± 0.18	1247.1 ± 0.95
298.15 K, x2 = 0.4499	777.849 ± 0.18	1248 ± 0.97
298.15 K, x2 = 0.5496	783.354 ± 0.19	1250.2 ± 1
298.15 K, x2 = 0.6482	789.026 ± 0.2	1252.5 ± 1.1
298.15 K, x2 = 0.7509	795.166 ± 0.21	1255.1 ± 1.1
298.15 K, x2 = 0.7987	798.112 ± 0.21	1256.4 ± 1.1
298.15 K, x2 = 0.8986	804.449 ± 0.23	1259.3 ± 1.1
298.15 K, x2 = 0.9488	807.773 ± 0.23	1261 ± 1.2
303.15 K, x2 = 0.1122	756.507 ± 0.16	1223.3 ± 0.84
303.15 K, x2 = 0.1605	758.79 ± 0.17	1223.9 ± 0.86
303.15 K, x2 = 0.2587	763.614 ± 0.17	1225.3 ± 0.89
303.15 K, x2 = 0.3597	768.787 ± 0.18	1227.2 ± 0.93
303.15 K, x2 = 0.4096	771.421 ± 0.18	1228.2 ± 0.95
303.15 K, x2 = 0.4986	776.259 ± 0.19	1230.1 ± 0.98
303.15 K, x2 = 0.6478	784.736 ± 0.2	1233.7 ± 1
303.15 K, x2 = 0.747	790.673 ± 0.21	1236.3 ± 1.1
303.15 K, x2 = 0.7997	793.928 ± 0.21	1237.9 ± 1.1
303.15 K, x2 = 0.852	797.226 ± 0.22	1239.4 ± 1.1
303.15 K, x2 = 0.8984	800.193 ± 0.23	1240.8 ± 1.1

CCCNCCC [dipropylamine] + CCCCCC(C)=O
Details	mass density [kg/m3]	speed of sound [m/s]
293.15 K, x2 = 0.0603	743.175 ± 0.24	1213.9 ± 1.2
293.15 K, x2 = 0.1045	746.717 ± 0.24	1217.2 ± 1.2
293.15 K, x2 = 0.1559	750.817 ± 0.24	1221 ± 1.2
293.15 K, x2 = 0.2013	754.413 ± 0.24	1224.3 ± 1.2
293.15 K, x2 = 0.2526	758.468 ± 0.24	1228.1 ± 1.2
293.15 K, x2 = 0.2936	761.7 ± 0.24	1231.1 ± 1.2
293.15 K, x2 = 0.3492	766.042 ± 0.24	1235.2 ± 1.2
293.15 K, x2 = 0.4579	774.494 ± 0.24	1243 ± 1.2
293.15 K, x2 = 0.493	777.204 ± 0.24	1245.6 ± 1.2
293.15 K, x2 = 0.5494	781.554 ± 0.24	1249.6 ± 1.2
293.15 K, x2 = 0.5894	784.624 ± 0.24	1252.6 ± 1.2
293.15 K, x2 = 0.6478	789.087 ± 0.24	1256.9 ± 1.2
293.15 K, x2 = 0.6896	792.266 ± 0.24	1259.9 ± 1.2
293.15 K, x2 = 0.7615	797.717 ± 0.24	1265.1 ± 1.2
293.15 K, x2 = 0.8025	800.833 ± 0.24	1268 ± 1.2
293.15 K, x2 = 0.8139	801.69 ± 0.24	1268.8 ± 1.2
293.15 K, x2 = 0.8993	808.079 ± 0.24	1275 ± 1.2
293.15 K, x2 = 0.948	811.684 ± 0.24	1278.4 ± 1.2
298.15 K, x2 = 0.0521	738.054 ± 0.24	1191.8 ± 1.2
298.15 K, x2 = 0.1048	742.273 ± 0.24	1196 ± 1.2
298.15 K, x2 = 0.1557	746.324 ± 0.24	1199.8 ± 1.2
298.15 K, x2 = 0.2	749.853 ± 0.24	1203.2 ± 1.2
298.15 K, x2 = 0.2526	754.005 ± 0.24	1207.1 ± 1.2
298.15 K, x2 = 0.2962	757.449 ± 0.24	1210.4 ± 1.2
298.15 K, x2 = 0.3436	761.173 ± 0.24	1213.9 ± 1.2
298.15 K, x2 = 0.385	764.422 ± 0.24	1217 ± 1.2
298.15 K, x2 = 0.4478	769.307 ± 0.24	1221.7 ± 1.2
298.15 K, x2 = 0.5427	776.662 ± 0.24	1228.8 ± 1.2
298.15 K, x2 = 0.6003	781.222 ± 0.24	–
298.15 K, x2 = 0.6436	784.41 ± 0.24	1236.4 ± 1.2
298.15 K, x2 = 0.69	787.95 ± 0.24	1239.8 ± 1.2
298.15 K, x2 = 0.7418	791.892 ± 0.24	1243.6 ± 1.2
298.15 K, x2 = 0.8061	796.768 ± 0.24	1248.5 ± 1.2
298.15 K, x2 = 0.8548	800.432 ± 0.24	1252 ± 1.2
298.15 K, x2 = 0.8993	803.773 ± 0.24	1255.3 ± 1.2
298.15 K, x2 = 0.9528	807.724 ± 0.24	1259.1 ± 1.2
303.15 K, x2 = 0.0578	733.883 ± 0.24	1172.1 ± 1.2
303.15 K, x2 = 0.1054	737.733 ± 0.24	1175.8 ± 1.2
303.15 K, x2 = 0.1579	741.943 ± 0.24	1179.9 ± 1.2
303.15 K, x2 = 0.2005	745.356 ± 0.24	1183.2 ± 1.2
303.15 K, x2 = 0.2497	749.277 ± 0.24	1187.1 ± 1.2
303.15 K, x2 = 0.2951	752.865 ± 0.24	1190.6 ± 1.2
303.15 K, x2 = 0.3476	756.998 ± 0.24	1194.7 ± 1.2
303.15 K, x2 = 0.3856	759.993 ± 0.24	1197.7 ± 1.2
303.15 K, x2 = 0.4504	765.062 ± 0.24	1202.6 ± 1.2
303.15 K, x2 = 0.5442	772.346 ± 0.24	1209.8 ± 1.2
303.15 K, x2 = 0.5891	775.815 ± 0.24	1213.4 ± 1.2
303.15 K, x2 = 0.642	779.872 ± 0.24	1217.3 ± 1.2
303.15 K, x2 = 0.687	783.319 ± 0.24	1220.8 ± 1.2
303.15 K, x2 = 0.7413	787.465 ± 0.24	1225 ± 1.2
303.15 K, x2 = 0.7994	791.897 ± 0.24	1229.4 ± 1.2
303.15 K, x2 = 0.8564	796.191 ± 0.24	1233.7 ± 1.2
303.15 K, x2 = 0.8993	799.423 ± 0.24	1236.9 ± 1.2
303.15 K, x2 = 0.9497	803.188 ± 0.24	1240 ± 1.2
